The source of these data is patent publication US20080191164A1, “Method For the Treatment of a Material Other Than the Human Body” (priority 2005, published 2008).

Data set [1] in a line: Flammability / flashpoint of the compositions. The class given is physicochemical. More on the design: key to FLA = flammability: − = no; +/° C. = yes/flashpoint.
The nature of data set [2]: Volatility / aptitude for drying. More on the design: key: 0 = low; + = moderate; ++ = high. It counts as physicochemical.
Data set [3] has as its system man. The note with it: cited from earlier work; for toxicity for man: compulsory labelings T, Xn, R40, R45 and/or R65.
A short description of data set [4]: Biodegradability (general properties table).
For data set [5] the following is noted: compulsory labelings; cited from earlier work.
Data set [6] can be described thus: Rinsability with water. The class given is physicochemical. Set-up: key: 0 = poor; + = good; ++ = excellent.
For data set [7] the following is noted: background statement; cited from earlier work.
The nature of data set [8]: Risks of harmfulness, protection of the aquatic environment/bioaccumulation. Set-up: key: − = harmfulness demonstrated; + = slight risk; ++ = very slight risks. An excerpt:
For each of Compositions A to E, the characteristics of odor (“ODOR”), of stability at alkaline pH, i.e. at a pH of 9 (“STAB.”) and of risks of harmfulness in terms of protection of the aquatic environment/bioaccumulation (“BIO.”) are taken up in the table below according to the following notation: […]

A short description of data set [9]: Rate of evaporation with respect to n-butyl acetate. The class given is physicochemical. The note with it: 20° C.
Data set [10] relates to aquatic organisms, such as bacteria, freshwater algae, daphnia and freshwater fish. The data set can be described thus: Toxicity for aquatic organisms.
Data set [11] can be described thus: Ready biodegradability, OECD No. 301 A (DOC Die-away Test). The note with it: at 28 days.
The conditions of data set [12]: advantages hitherto described; cited from earlier work.

As to `ClC=C(Cl)Cl` [Composition 1, trichloroethylene], the “FLA = flammability” value in data set [1] was “−”. For the same compound, the “VOL = volatility/aptitude for drying” value in data set [2] is “++”. In addition, the toxicity for man entry in data set [3] is given as “a certain toxicity for man”. The “BIO = biodegradability” value in data set [4] is recorded as “−”. Also, the “toxicity for the environment” value in data set [5] is recorded as “compulsory labelings R51/R53”. For the same compound, the “RIN = rinsability with water” value in data set [6] is reported as 0.

For `ClCCl` [Composition 2, dichloromethane], the “FLA = flammability” value in [1] is “−”. In [2], the “VOL = volatility/aptitude for drying” value is given as “++”. In data set [3], the toxicity for man entry is on record as “a certain toxicity for man”. The “BIO = biodegradability” value in data set [4] is listed as “−”. The “toxicity for the environment” value in data set [5] is given as “compulsory labelings R51/R53”. In addition, the “RIN = rinsability with water” value in data set [6] is recorded as 0.

In the case of `C=C(C)[C@H]1CC=C(C)CC1` [Composition 3, dipentene], in data set [1], the “FLA = flammability” value was “+” and the “FLA: flashpoint” value was 48 °C. Further, the “VOL = volatility/aptitude for drying” value in data set [2] is reported as “++”. The “BIO = biodegradability” value in data set [4] is given as “+”. In addition, the “RIN = rinsability with water” value in data set [6] was 0.

On to `CCOC(=O)C(C)O` (stereo not shown) [Composition 4, ethyl lactate], for which the flashpoint in data set [7] is 46 °C. Further, in data set [1], the “FLA = flammability” value is reported as “+” and the “FLA: flashpoint” value came to 46 °C. In data set [2], the “VOL = volatility/aptitude for drying” value is listed as “+”. Besides, in data set [6], the “RIN = rinsability with water” value is “+”.

Take `CO[C@H]1CO[C@H]2[C@@H]1OC[C@H]2OC` [Composition 5, dimethyl isosorbide]: in [8], the “BIO. (risks of harmfulness, aquatic environment/bioaccumulation)” value is listed as “++”. Moreover, in [1], the “FLA = flammability” value is “+” and the “FLA: flashpoint” value stood at 120 °C. Further, the “VOL = volatility/aptitude for drying” value in data set [2] is 0. The “irritant nature and toxicity to man” value in data set [3] (advantages hitherto described) was “absence of irritant nature and of toxicity to man”. Moreover, the “rate of evaporation with respect to n-butyl acetate” value in data set [9] is given as “less than 0.005”. In addition, the “toxicity for aquatic organisms” value in data set [10] was “absence of toxicity”. Also, the “ready biodegradability (OECD No. 301 A)” value in data set [11] was roughly 25%. Moreover, in [4], the “BIO = biodegradability” value is on record as “+”. For the same compound, the miscibility with water result in [12] was “in all proportions”. In [6], the “RIN = rinsability with water” value is on record as “++”.

As to `C=C(C)[C@H]1CC=C(C)CC1` [d-limonene], the flashpoint in [7] was 48 °C.
